According to patent publication US10919891B2, “Heterocyclic compound” (TAKEDA PHARMACEUTICAL COMPANY LIMITED, priority 2017, dated 2021):

Legend:
CYP3A = experiment: CYP Induction (CYP3A activity in cryopreserved hepatocytes, P450-Glo CYP3A4 assay); type: in vitro ADME; conditions: % of positive control (inducibility by 10 μmol/L rifampicin = 100%); hepatocytes treated 3 days
Method: Cryopreserved hepatocytes were thawed in a culture medium (In VitroGRO™ CP Medium, Celsis In Vitro Technologies, U.S.A.), and the resultant was added to BioCoat™ Matrigel® Matrix Thin-Layer 96 well (Becton, Dickinson and Company, U.S.A.) at a concentration of 40,000 cells/well. After culturing for 24 hours, the culture medium was removed, and replaced with an incubation medium (In VitroGRO™, HI Medium with Torpedo Antibiotic Mix, Celsis In Vitro Technologies, U.S.A.). Cells were cultured for an additional 3 days. The medium was removed on day 4, and the remained cells were treated in the induction medium containing a test compound for 3 days in the presence or absence of 10 μmol/L rifampicin. The induction medium was replaced every day. The test compound addition wells in the presence of 10 μmol/L rifampicin were used to evaluate the inhibitory effect of the test compound on the inducibility of the CYP3A activity by rifampicin. The CYP3A activity was evaluated by measuring luciferin generating amount after the addition of 2 μmol/L luciferin-IPA using IPA P450-Glo™ CYP3A4 assay systems (Promega Corporation, U.S.A.). All cultures were carried out under a humidified environment at 37° C., 5% CO2. The inducibility by rifampicin was defines as 100%, and the inducibility of the test compound (% of positive control) was calculated from the following equation: [(luciferin fluorescence intensity in the absence of rifampicin and the presence of test compound)−(luciferin fluorescence intensity in the absence of rifampicin and test compound)/(luciferin fluorescence intensity in the presence of rifampicin and the absence of test compound)−(Luciferin fluorescence intensity in the absence of rifampicin and test compound)]×100.

CYP3A4 = target: T1, CYP3A4 (Homo sapiens, UniProt P08684); experiment: CYP3A4 TDI (human liver microsomes, testosterone 6β-hydroxylation); type: in vitro ADME; conditions: test compound 30 μM, 60 min vs 0 min preincubation with NADPH, 37° C.
T1 construct: Human liver microsomes purchased from XenoTech, LLC (Lenexa, Kans.) was used; tissue XenoTech, LLC; host or cells: human liver microsomes
Method: Human liver microsomes purchased from XenoTech, LLC (Lenexa, Kans.) was used. Test compounds were dissolved in acetonitrile, acetonitrile/methanol (1:1, v/v) or DMSO/acetonitrile (1:4, v/v). To a human liver microsomes solution adjusted with phosphate buffer (pH 7.4), the test compound solution was added to obtain a human liver microsomes reaction solution having the test compound concentration of 30 μM. To the human liver microsome reaction solution, NADPH production system was added, and the mixture was preincubated at 37° C. for 0 minutes or 60 minutes. After the preincubation, probe substrate testosterone was added, and testosterone metabolite 6β-hydroxytestosterone was analyzed by LC/MS/MS to evaluate CYP3A4 enzymatic activity.
The enzyme activity (% of control) at each preincubation point was calculated from the following equation: % of control=[(activity of test compound addition group)/(activity of test compound non-addition group)]×100.
The remaining activity (% remaining) after 60 minutes of preincubation was calculated from the following equation: Remaining activity (%)=[activity after 60 minutes (% of control60 min)]/[activity after 0 minutes (% of control0 min)]×100.

human CaSR = target: T2, human CaSR (Homo sapiens, UniProt P41180); experiment: Human CaSR Antagonist Activity (CHO cells, NFAT-Luciferase reporter); type: cell-based; conditions: CHO, 2 h, 3.3 μm test compound; CaCl2 final 1.3 mM; 100% = reference carboxamide at 10 μM; read-out: Inhibition rate (%) at 3.3 μm
T2 construct: expressed in transfected cells; host or cells: CHO cells
T2 sequence (P41180 20-1078): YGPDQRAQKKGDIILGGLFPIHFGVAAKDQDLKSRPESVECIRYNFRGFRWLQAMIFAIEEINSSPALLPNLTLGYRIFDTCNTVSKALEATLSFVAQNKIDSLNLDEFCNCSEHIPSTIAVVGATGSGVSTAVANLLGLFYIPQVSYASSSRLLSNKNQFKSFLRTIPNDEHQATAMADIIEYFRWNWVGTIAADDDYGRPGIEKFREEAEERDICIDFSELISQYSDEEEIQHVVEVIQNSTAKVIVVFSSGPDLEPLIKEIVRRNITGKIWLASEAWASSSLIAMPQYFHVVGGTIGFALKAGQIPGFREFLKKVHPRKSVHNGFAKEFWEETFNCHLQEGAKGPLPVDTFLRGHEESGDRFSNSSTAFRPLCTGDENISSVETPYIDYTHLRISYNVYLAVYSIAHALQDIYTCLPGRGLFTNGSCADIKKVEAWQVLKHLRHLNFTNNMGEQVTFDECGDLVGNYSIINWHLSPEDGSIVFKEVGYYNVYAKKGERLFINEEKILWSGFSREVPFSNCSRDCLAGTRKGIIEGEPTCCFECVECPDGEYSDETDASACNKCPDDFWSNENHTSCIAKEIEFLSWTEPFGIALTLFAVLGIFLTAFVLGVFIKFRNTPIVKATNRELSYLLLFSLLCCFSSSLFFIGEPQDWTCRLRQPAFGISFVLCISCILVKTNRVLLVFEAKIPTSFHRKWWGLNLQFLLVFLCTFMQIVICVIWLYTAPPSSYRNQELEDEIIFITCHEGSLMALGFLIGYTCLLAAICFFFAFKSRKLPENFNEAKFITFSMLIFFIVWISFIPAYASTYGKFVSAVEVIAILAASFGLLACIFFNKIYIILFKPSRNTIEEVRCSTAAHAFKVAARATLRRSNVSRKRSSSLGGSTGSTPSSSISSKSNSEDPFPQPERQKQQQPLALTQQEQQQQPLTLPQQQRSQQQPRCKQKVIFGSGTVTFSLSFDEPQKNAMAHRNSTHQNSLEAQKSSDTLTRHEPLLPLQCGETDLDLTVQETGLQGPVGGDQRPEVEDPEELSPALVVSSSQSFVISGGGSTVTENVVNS
Method: CaSR antagonist activity measurement was performed using Bright-Glo Luciferase assay system (Promega Corporation). CHO cells in which human CaSR and NFAT-Luciferase reporter gene were forcibly expressed were suspended in MEM alpha (Wako Pure Chemical Industries, Ltd.) containing 10% dialyzed serum (HyClone). The cells in suspension was seeded in 384-well white plate (Corning) at 10,000/20 μL/well, and cultured in an incubator of 37° C., 5% CO2 for one day. A diluent of Test compound was prepared with assay buffer (MEM alpha containing 10 mM HEPES (Life Technologies) and 10% dialysis serum). The diluent was added to the plate at 5 μL/well and allowed to stand at 37° C. for 10 minutes. Further, a diluent of 7.8 mM CaCl2 prepared with assay buffer (final concentration 1.3 mM) was added at 5 μl/well and allowed to stand in an incubator of 37° C., 5% CO2 for 2 hours. Bright-Glo reagents (Promega Corporation) were added at 10 μL/well, and the obtained mixture was stirred for 5 minutes, and then luminescence intensity was measured using Multi-label reader Envision (PerkinElmer, Inc.). The activity (%) of the test compound was calculated with the definitions in which the luminescence intensity when DMSO is added in place of the test compound is defined as 0% inhibition; and the luminescence intensity when (5R)—N-(1-ethyl-1-(4-ethylphenyl)propyl)-2,7,7-trimethyl-5-phenyl-4,5,6,7-tetrahydropyrazolo[1,5-a]Pyrimidine-3-carboxamide at final concentration of 10 μM is added is defined as 100% inhibition.

[1] = tested on: aortic banding (TAC) models; conditions: cited from earlier work
[2] = dosing after cardiac loading; cited from earlier work
[3] = tested on: monocrotaline (MCT)-induced pulmonary hypertension rats; conditions: cited from earlier work
[4] = tested on: hypoxia-induced pulmonary hypertension (HPH) mice; conditions: cited from earlier work

T1 sequence (P08684 whole entry): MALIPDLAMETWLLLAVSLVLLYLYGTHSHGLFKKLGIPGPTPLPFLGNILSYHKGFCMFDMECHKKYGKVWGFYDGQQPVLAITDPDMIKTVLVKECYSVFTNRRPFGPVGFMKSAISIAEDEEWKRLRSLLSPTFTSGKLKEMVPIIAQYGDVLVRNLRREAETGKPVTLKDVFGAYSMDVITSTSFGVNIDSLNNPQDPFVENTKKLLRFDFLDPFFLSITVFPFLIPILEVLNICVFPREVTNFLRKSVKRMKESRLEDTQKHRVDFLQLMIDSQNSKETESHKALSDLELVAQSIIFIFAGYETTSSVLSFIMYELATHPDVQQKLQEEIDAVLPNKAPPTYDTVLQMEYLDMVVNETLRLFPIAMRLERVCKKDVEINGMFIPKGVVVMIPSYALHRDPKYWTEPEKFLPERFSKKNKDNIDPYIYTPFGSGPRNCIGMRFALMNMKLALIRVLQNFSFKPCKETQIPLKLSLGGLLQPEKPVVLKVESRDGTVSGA

Compound	Inducibility (%) (CYP3A)	Remaining Activity (%) (CYP3A4)	inhibition at 3.3 µM (human CaSR) [%]	cardiac hypertrophy [1]	cardiac hypofunction [2]	cardiac hypertrophy, elevated right ventricular systolic pressure, fibrosis of cardiac muscle tissue, pulmonary vascular remodeling [3]	cardiac hypertrophy, elevated right ventricular systolic pressure, fibrosis of cardiac muscle tissue, pulmonary vascular remodeling [4]
CC1(C)C[C@H](c2ccccc2)Nc2c(C(=O)N3CC4CC4(c4ccc(C(F)(F)F)cc4)C3)cnn21 (single isomer, unassigned) [Example 7]	2.3	78.1	97	–	–	–	–
C[C@@H](N[C@H]1CCCC[C@@H]1NC(=O)c1ccc(Cl)cc1)c1cccc2ccccc12 [Calhex231]	–	–	–	improves cardiac hypertrophy	fails to improve cardiac hypofunction	–	–
CC(C)(Cc1ccc2ccccc2c1)NC[C@@H](O)COc1cccc(Cl)c1C#N [NPS-2143]	–	–	–	–	–	suppressed	suppressed

Second part, led by results:

Inducibility (%) (CYP3A)	Remaining Activity (%) (CYP3A4)	inhibition at 3.3 µM (human CaSR) [%]	Compound	cardiac hypertrophy [1]	cardiac hypofunction [2]	cardiac hypertrophy, elevated right ventricular systolic pressure, fibrosis of cardiac muscle tissue, pulmonary vascular remodeling [3]	cardiac hypertrophy, elevated right ventricular systolic pressure, fibrosis of cardiac muscle tissue, pulmonary vascular remodeling [4]
1.2	97.7	99	CC1(C)C[C@H](c2ccccc2)Nc2c(C(=O)N3CC4CC4(c4ccc(C(F)(F)F)c(Cl)c4)C3)cnn21 (single isomer, unassigned) [Example 11]	–	–	–	–
10.7	87.0	100	CC1(C)C[C@H](c2ccccc2)Nc2c(C(=O)N3CC4CC4(c4cc(Cl)cc(Cl)c4)C3)cnn21 (single isomer, unassigned) [Example 4]	–	–	–	–
16.7	81.8	101	CC1(C)C[C@H](c2ccccc2)Nc2c(C(=O)N3CC4CC4(c4ccc(Cl)c(C(F)(F)F)c4)C3)cnn21 (single isomer, unassigned) [Example 13]	–	–	–	–
9.0	86.4	96	CC1(C)C[C@H](c2ccccc2)Nc2c(C(=O)N3CC4CC4(c4cc(Cl)cc(C(F)(F)F)c4)C3)cnn21 (single isomer, unassigned) [Example 9]	–	–	–	–
